Source: patent publication US20010036955A1, “Method of inhibiting angiogenesis” (Genentech, Inc., priority 1998, published 2001)

How the values were obtained:
[1] = tested on: VEGF-stimulated angiogenesis in rat cornea; experiment: Corneal angiogenesis assay (Hydron pellet with VEGF); assay type: in vivo, Sprague-Dawley rats
Method: A 1.5 mm incision was made approximately 1 mm from the center of the cornea of isoflurane-ketamine (60-80 mg/kg) xylazine (10-15 mg/kg) anesthetized Sprague-Dawley rats. Using a curved spatula, the incision was bluntly dissected through the stroma towards the outer canthus of the eye. A Hydron pellet […] containing VEGF (200 ng), sucralfate (100 μg) with or without (control) 15d-PGJ2 (10 μg/pellet) was inserted into the base of the pocket. After surgery, the eyes were coated with gentamicin ointment. Animals are observed at 24-48 hr for the occurrence of nonspecific inflammation and then daily thereafter. At day 6, the animals were euthanized and injected with FITC-dextran to allow for visualization of the vasculature. Corneal whole mounts were made of the enucleated eyes and analyzed for neovascular area using the computer assisted image analysis.

[2] = tested on: HUVEC tube formation; experiment: Endothelial tube assay of Example 7 (average tube length, 3-D type I collagen gels); assay type: cell-based, human; conditions: 10 μM; 24 h; 3-D collagen gels
Method: Collagen gels were formed by mixing together ice-cold gelation solution (IOX M199, H2O, 0.53M NaHCO3, 200 mM L-glutamine, type I collagen, 0.1M NaOH, 100:27.2:50:10:750:62.5 by volume) and cells in 1× basal medium (see below) at a concentration of 3×10^6 cells/ml at a ratio of 4 volumes gelation solution: 1 volume of cells (18). After gelation at 37° C. for 30 min, the gels were overlaid with 1× basal medium consisting of M199 supplemented with […], 1× ITS, 2 mM L-glutamine, […] ascorbic acid, 26.5 mM NaHCO3, 100 U/ml penicillin and 100 U/ml streptomycin supplemented with 40 ng/ml bFGF, 40 ng/ml VEGF, 80 nM PMA or the combination of PMA (80 nM), bFGF and VEGF (40 ng/ml each). All drugs were added to the 1× basal medium immediately after gelation. To quantify tube formation, the average tube length was determined by measuring total tube length (long axis) in three consecutive layers of a low power (10×) field using Openlab software (Improvision Inc, England). Each layer was separated by 100 μm.

[3] = tested on: HUVEC tube formation; experiment: Endothelial tube assay (number of tubes, three-dimensional collagen gels); assay type: cell-based, human
Method: In this model, endothelial cells are suspended in a three-dimensional collagen lattice of type I collagen and undergo rapid morphogenesis. Within 4 hr numerous vacuoles are observed in the majority of endothelial cells; at 24 hr the formation of tube-like structures can be observed and at 48 hr an interconnected network of tube-like structures is observed.
Collagen gels were formed by mixing together ice-cold gelatin solution (10× M199, H2O, 0.53M NaHCO3, 200 mM L-glutamine, type I collagen, 0.1M NaOH, 100:27.2:50:10:750:62.5 by volume) and cells in 1× basal medium at a concentration of 3×10^6 cells/ml at a ratio of 4 volumes gelatin solution: 1 volume of cells. After gelation at 37 for 30 min, the gels were overlaid with IX basal medium consisting of M199 supplemented with 1%FBS, 1× ITS, 2 mM L-glutamine, 50 μg/ml ascorbic acid, 26.5 mM NaHCO3, 100 U/ml penicillin and 100 U/mil streptomycin supplemented with 40 ng/ml BFGF, 40 ng/ml VEGF and 80 nM phorbol myristate acetate (PMA). All drugs were added to the IX basal medium immediately after gelation. To quantitate tube formation, the number of tubes per high power (20× field) was determined 48 hr after addition of the basal medium Five independent fields separated by 100 μm optical sections were assessed for each well. Cytotoxicity was assessed using an XTT kit from Boehringer Mannheim (Indianapolis, Ind.).

[4] = tested on: HUVEC proliferation; experiment: Proliferation assay (BrdU incorporation); assay type: cell-based, human; conditions: type I collagen-coated surface, VEGF, bFGF and PMA, read-out: inhibition of endothelial cell (HUVEC) proliferation, IC50
Method: Cells were cultured in above medium in the presence of drugs or vehicle for 4 hr. 5 μl (100 μM) of 5′-bromo-2′-deoxyuridine (BrdU) was added in a final volume of 100 μl/well and cells were incubated for another 20 hr. BrdU incorporation was evaluated by an ELISA kit from Boehringer Mannheim (Indianapolis, Ind.).

[5] = tested on: MMP-3 mRNA; experiment: Real time RT-PCR (Taqman) assay in HUVEC, Example 7; assay type: cell-based, human
Method: (§1) Total RNA was extracted from HUVEC cultured in 3-D type I collagen gels for various times in 1× basal medium supplemented with 40 ng/ml bFGF, 40 ng/ml VEGF, […] PMA or the combination of PMA (80 nM), bFGF and VEGF (40 ng/mil each). […] For all mRNAs evaluated a sample of total RNA (100 ng) was added to a 50 μl RT-PCR reaction mixture according to the manufacturer's protocol (Roche Molecular Systems, Inc., Branchburg, N.J.). The thermal cycling conditions included 1 cycle at 48° C. for 30 min, 1 cycle at 95° C. for 10 min, 40 cycles at 95° C. for 15 s, at 60° C. for 1 min, and finally hold at 25° C. for 2 min. Standard curves for expression of each gene were generated by serial dilution of the total RNA isolated from U937 cells. […] Therefore, the relative mRNA expression of each gene was normalized to the level of GAPDH in the same RNA preparation.

[6] = tested on: TIMP-1 mRNA; experiment: as above; assay type: cell-based, human; conditions: 10 μM; bFGF, VEGF and PMA; at 4 h or 24 h
Method: as §1

[7] = tested on: MMP-9 mRNA; experiment: as above; assay type: cell-based, human; conditions: 10 μM; 24 h; PMA or PMA with bFGF and VEGF
Method: as §1

[8] = tested on: MMP-2 mRNA; experiment: as above; assay type: cell-based, human; conditions: 10 μM; 24 h; PMA or PMA with bFGF and VEGF
Method: as §1

[9] = tested on: TIMP-2 mRNA; experiment: as above; assay type: cell-based, human; conditions: 10 μM; bFGF, VEGF and PMA; at 4 h
Method: as §1

For CCCCC/C=C/C=C1/C(=O)C=CC1C/C=C\CCCC(=O)O (stereo not drawn) [15d-PGJ2, 15-deoxy-delta^12,14-PGJ2], the “area of new vessels (FIG. 4C)” value ([1]; 200 ng/pellet VEGF and 10 μg/ml 15d-PGJ2, day 6 postimplantation, p<0.05, Mann-Whitney) was “significantly different from VEGF alone group”, the “vessel length compared to VEGF only (positive) controls” value ([1]; Hydron pellet, 200 ng VEGF with 10 μg 15d-PGJ2, rat cornea) was “significant reduction” and the “PMA or PMA in combination with bFGF and VEGF induced HUVEC tube formation” value [2] was “blocked”. The “effect on tube formation (FIG. 1B)” value ([3]; 10 μM, 48 hr) was “inhibitory effects”, the IC50 ([3]; HUVEC in collagen gels with bFGF, VEGF and PMA, tubes counted at 48 hr, read-out: inhibition of tube formation, IC50) was 2.8 µM and the IC50 [4] was 2.4 µM. For the same molecule, the “MMP-3 mRNA levels” value ([5]; HUVEC cultured with combination of bFGF, VEGF and PMA at 24 h) was “increased”, the “MMP-3 mRNA expression” value ([5]; PMA-treated group) was “no effect” and the “expression of TIMP-1” value [6] was “did not increase”. For the same molecule, the “MMP-9 mRNA levels” value [7] was “significant suppression”, the “MMP-2 mRNA levels” value [8] was “significant suppression” and the “TIMP-2 mRNA levels compared to the vehicle treated group” value [9] was “reduced”.
